In one experiment the target is T1, LRRK2(G2019S mutation, GST-LRRK2(amino acids 970-2527)) (Homo sapiens, UniProt Q5S007, G2019S).
T1 construct: GST-LRRK2(amino acids 970-2527); GST (N); purchased Life Technologies Corporation
T1 sequence (Q5S007 970-2527 G2019S): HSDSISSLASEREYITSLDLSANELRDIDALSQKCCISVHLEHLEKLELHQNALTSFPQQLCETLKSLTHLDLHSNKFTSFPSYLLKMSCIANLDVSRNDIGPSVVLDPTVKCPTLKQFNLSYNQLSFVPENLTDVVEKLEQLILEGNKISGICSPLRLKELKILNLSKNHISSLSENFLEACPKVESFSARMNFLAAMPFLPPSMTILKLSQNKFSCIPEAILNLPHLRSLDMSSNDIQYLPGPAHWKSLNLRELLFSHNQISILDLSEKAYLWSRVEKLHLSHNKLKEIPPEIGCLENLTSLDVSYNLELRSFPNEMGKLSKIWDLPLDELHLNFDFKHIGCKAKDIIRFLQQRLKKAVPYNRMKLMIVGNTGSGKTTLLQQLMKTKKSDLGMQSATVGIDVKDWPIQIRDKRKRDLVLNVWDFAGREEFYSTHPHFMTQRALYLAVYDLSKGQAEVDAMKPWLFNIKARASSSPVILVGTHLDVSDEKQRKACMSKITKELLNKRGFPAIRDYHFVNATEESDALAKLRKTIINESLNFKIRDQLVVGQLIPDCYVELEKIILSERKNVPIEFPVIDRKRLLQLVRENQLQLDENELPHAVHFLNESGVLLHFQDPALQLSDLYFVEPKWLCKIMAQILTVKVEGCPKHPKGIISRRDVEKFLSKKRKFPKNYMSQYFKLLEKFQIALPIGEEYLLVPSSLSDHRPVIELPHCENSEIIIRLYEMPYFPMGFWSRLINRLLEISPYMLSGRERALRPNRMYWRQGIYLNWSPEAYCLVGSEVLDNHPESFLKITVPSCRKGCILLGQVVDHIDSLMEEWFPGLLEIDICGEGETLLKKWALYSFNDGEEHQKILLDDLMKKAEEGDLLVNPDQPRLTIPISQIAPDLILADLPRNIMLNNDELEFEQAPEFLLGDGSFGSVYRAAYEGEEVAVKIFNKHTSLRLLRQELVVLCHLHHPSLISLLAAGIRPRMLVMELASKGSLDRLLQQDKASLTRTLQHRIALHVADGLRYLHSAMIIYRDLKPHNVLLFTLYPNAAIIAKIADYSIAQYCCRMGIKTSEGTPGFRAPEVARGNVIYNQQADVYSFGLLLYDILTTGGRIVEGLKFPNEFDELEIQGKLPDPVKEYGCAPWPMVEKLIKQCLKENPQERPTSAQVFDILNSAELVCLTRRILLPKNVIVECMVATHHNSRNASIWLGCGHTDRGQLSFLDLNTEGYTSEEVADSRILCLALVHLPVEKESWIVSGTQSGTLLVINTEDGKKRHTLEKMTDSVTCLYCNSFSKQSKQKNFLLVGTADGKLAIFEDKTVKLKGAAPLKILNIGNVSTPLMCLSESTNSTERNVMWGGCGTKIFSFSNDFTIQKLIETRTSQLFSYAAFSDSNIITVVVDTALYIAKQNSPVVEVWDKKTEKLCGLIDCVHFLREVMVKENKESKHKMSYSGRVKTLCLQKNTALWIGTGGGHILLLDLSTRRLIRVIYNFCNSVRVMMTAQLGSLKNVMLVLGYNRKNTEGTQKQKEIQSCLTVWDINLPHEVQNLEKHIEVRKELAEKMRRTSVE
The experiment in a line: LRRK2 Km ATP LanthaScreen Assay. In kind it is biochemical. The settings on record: Km ATP LanthaScreen Assay; LRRK2 G2019S; mean IC50 values; Examples 185-215; read-out: LRRK2 IC5). Summed up: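 IC50 values are means of several runs in the Km-ATP LanthaScreen format, analysed by curve fitting of the LanthaScreen read-out.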
On the technique in general: Time-resolved FRET reads energy transfer from a long-lived donor to a nearby acceptor.
Turning to `CC(C)Oc1ccc2[nH]nc(-c3ccnc(N4CC[S+]([O-])CC4)c3)c2c1` [Example 191], the IC50 was 7.4 nM. For the compound `CC(C)Oc1ccc2[nH]nc(-c3ccnc(N4CCN(CC5CC5)CC4)c3)c2c1` [Example 211], the IC50 amounted to 6.2 nM. The same measure, in the same setting: the figure for `CC(C)Oc1ccc2[nH]nc(-c3ccnc(N4CCCN(S(C)(=O)=O)CC4)c3)c2c1` [Example 189] is 22.4 nM; for `CC(C)Oc1ccc2[nH]nc(-c3ccnc(N4CCN(c5cnccn5)CC4)c3)c2c1` [Example 202] it is 6.4 nM. On to `Cc1nnc(CN(C)c2cc(-c3n[nH]c4ccc(OC(C)C)cc34)ccn2)o1` [Example 192], for which the IC50 was 25.3 nM.

Regarding `Cc1nc2c(o1)CCN(c1cc(-c3n[nH]c4ccc(OC(C)C)cc34)ccn1)C2` [Example 197], the IC50 amounted to 12.8 nM.

Still in this experiment, the particulars now being: Km ATP LanthaScreen Assay; LRRK2 G2019S; mean IC50 values; read-out: LRRK2 IC50.
On to `O=C1CN(c2cc(-c3n[nH]c4ccccc34)ccn2)CCCN1` [Example 48], for which the IC50 is 54 nM. The same measure, in the same setting: for `CC(C)Oc1ccc2[nH]nc(-c3ccnc(NC4Cc5ccccc5C4)c3)c2c1` [Example 130] the value was 13.3 nM. The same measure, in the same setting: the figure for `COCCC(=O)Nc1cc(-c2n[nH]c3ccc(OC(C)C)cc23)ccn1` [Example 150] is 51.7 nM; for `CC(C)Oc1ccc2[nH]nc(-c3ccnc(N4CC(O)(C(F)(F)F)C4)c3)c2c1` [Example 182] it is 10.8 nM; for `CC(C)Oc1ccc2[nH]nc(-c3ccnc(NC(=O)CCc4cnn(C)c4)c3)c2c1` [Example 162] it is 27.2 nM.

`O=C(CN1CCN(c2cc(-c3n[nH]c4ccccc34)ccn2)CC1)N1CCOCC1` [Example 57]: the IC50 stood at 6.1 nM. Still for that read-out and setting: for `[2H]C1([2H])OC([2H])([2H])C([2H])([2H])N(c2cc(-c3n[nH]c4ccc(OC(C)C)cc34)ccn2)C1([2H])[2H]` [Example 281] the value was 1.4 nM; for `CC(C)Oc1ccc2[nH]nc(-c3ccnc(NC(=O)C(C)c4ccccc4)c3)c2c1` (centres unmarked) [Example 151], 51.9 nM.

Take `CN1CC=C2CN(c3cc(-c4n[nH]c5ccccc45)ccn3)CC21` (centres unmarked) [Example 55]: the IC50 is 14 nM.

Consider `COC1CN(Cc2ccc3[nH]nc(-c4ccnc(N5CCOCC5)c4)c3c2)C1` [Example 91], for which the IC50 was found to be 161 nM.

Turning to `CC(C)Oc1ccc2[nH]nc(-c3ccnc(NC(=O)c4ccnc(-n5cnnn5)c4)c3)c2c1` [Example 148], the IC50 was 23.9 nM. The same measure, in the same setting: the figure for `CCOc1ccc2[nH]nc(-c3ccnc(N4CCC(n5cccn5)CC4)c3)c2c1` [Example 218] is 14.4 nM; for `CN(C)Cc1ccc2[nH]nc(-c3ccnc(N4CCOCC4)c3)c2c1` [Example 89] it is 35 nM; for `CCOc1ccc2[nH]nc(-c3ccnc(N4CCC(F)(F)C4)c3)c2c1` [Example 223] it is 13.5 nM. As for `CC(C)Oc1ccc2[nH]nc(-c3ccnc(NC(=O)c4cc(F)cc(F)c4)c3)c2c1` [Example 169], the IC50 was 169 nM.

Consider `CC(C)Oc1ccc2[nH]nc(-c3ccnc(N4CCC(c5ccncc5)C4)c3)c2c1` (centres unmarked) [Example 175], for which the IC50 was determined as 2.2 nM. Turning to `CCOc1ccc2[nH]nc(-c3ccnc(N4CCC(n5cccn5)C4)c3)c2c1` (centres unmarked) [Example 222], the IC50 amounted to 9.3 nM. In the case of `Cc1cc(C(=O)Nc2cc(-c3n[nH]c4ccc(OC(C)C)cc34)ccn2)n(C)n1` [Example 141], the IC50 turned out to be 51.4 nM. Regarding `CC(C)Oc1ccc2[nH]nc(-c3ccnc(NC(=O)C(C)C)c3)c2c1` [Example 154], the IC50 was 39.4 nM. With `OC[C@H]1CCN(c2cc(-c3n[nH]c4ccc(OC(F)(F)F)cc34)ccn2)C1` [Example 248], the IC50 came out at 96 nM. The same measure, in the same setting: for `c1ccc2c(-c3ccnc(NC4CCCOC4)c3)n[nH]c2c1` (centres unmarked) [Example 74] the value was 57 nM; for `CC(C)Oc1ccc2[nH]nc(-c3ccnc(NC(=O)Cc4ccsc4)c3)c2c1` [Example 157], 34.4 nM. Same read-out and setting: the figure for `CC(C)Oc1ccc2[nH]nc(-c3ccnc(NCC4CCCO4)c3)c2c1` (centres unmarked) [Example 135] is 3.2 nM; for `CN(CC1CCC(=O)N1)c1cc(-c2n[nH]c3ccccc23)ccn1` (centres unmarked) [Example 69] it is 75 nM. In the case of `CC(C)Oc1ccc2[nH]nc(-c3ccnc(NC(=O)C4CC45CCCC5)c3)c2c1` (centres unmarked) [Example 160], the IC50 is 140 nM. The same measure, in the same setting: for `COC1CN(c2cc(-c3n[nH]c4ccc(OC(C)C)cc34)ccn2)C1` [Example 183] the value was 5.3 nM; for `CC(C)COc1ccc2[nH]nc(-c3ccnc(N4CCOCC4)c3)c2c1` [Example 84], 5.9 nM.

In the case of `c1ccc2c(-c3ccnc(NCCn4ccnc4)c3)n[nH]c2c1` [Example 64], the IC50 came to 35 nM. Consider `Oc1ccc2[nH]nc(-c3ccnc(N4CCCCC4)c3)c2c1` [Example 254], for which the IC50 is 10.1 nM. Same read-out and setting: the figure for `O=C(O)[C@H]1CCCN(c2cc(-c3n[nH]c4ccccc34)ccn2)C1` [Example 41] is 24 nM; for `c1ccc2c(-c3ccnc(N4CCC(N5CCCC5)CC4)c3)n[nH]c2c1` [Example 29] it is 45 nM. The same measure, in the same setting: for `c1cncc(N2CCN(c3cc(-c4n[nH]c5ccccc45)ccn3)CC2)c1` [Example 24] the value was 18 nM. As to `c1ccc(COc2ccnc(-c3ccc4[nH]nc(-c5ccnc(N6CCOCC6)c5)c4c3)n2)cc1` [Example 101], the IC50 came out at 182 nM.

As to `FC(F)(F)Oc1ccc2[nH]nc(-c3ccnc(N4CCN(n5cccn5)CC4)c3)c2c1` [Example 239], the IC50 came to 233 nM.

As for `CC(C)Oc1ccc2[nH]nc(-c3ccnc(NC(=O)c4ccc(C#N)cc4)c3)c2c1` [Example 143], the IC50 came out at 113 nM. Same read-out and setting: the figure for `OCCNc1cc(-c2n[nH]c3ccccc23)ccn1` [Example 9] is 54 nM; for `O=C1CCCC2(CCN(c3cc(-c4n[nH]c5ccccc45)ccn3)CC2)N1` [Example 61] it is 14 nM; for `CCOc1ccc2[nH]nc(-c3ccnc(N4CCC(F)(F)CC4)c3)c2c1` [Example 216] it is 5.4 nM. As for `CO[C@H]1CCN(c2cc(-c3n[nH]c4ccc(OC(C)C)cc34)ccn2)C1` [Example 177], the IC50 is 5.2 nM. On the same count and under the same terms, for `CN1CCC(Nc2cc(-c3n[nH]c4ccccc34)ccn2)C1=O` (centres unmarked) [Example 68] the value was 108 nM; for `COC1(C)CN(c2cc(-c3n[nH]c4ccc(OC(F)(F)F)cc34)ccn2)C1` [Example 253], 201 nM. Still for that read-out and setting: the figure for `CC(C)Oc1ccc2[nH]nc(-c3ccnc(N4C[C@H](F)[C@@H](F)C4)c3)c2c1` [Example 174] is 6.6 nM; for `C1=CC(c2noc(C3CCN(c4cc(-c5n[nH]c6ccccc56)ccn4)CC3)n2)=CCC1` [Example 20] it is 27 nM.

Still in this experiment, the particulars now being: Km ATP LanthaScreen; mean IC50 of several tests; read-out: LRRK2 IC50.
For the compound `CCS(=O)(=O)c1ccc2[nH]nc(-c3ccnc(N4CCOCC4)c3)c2c1` [Example 371], the IC50 was found to be 48 nM. Still for that read-out and setting: for `FC(F)(F)Oc1ccc2[nH]nc(-c3ccnc(N4CCOCC4)c3)c2c1` [Example 374] the value was 28 nM; for `O=S(=O)(c1ccc2[nH]nc(-c3ccnc(N4CCOCC4)c3)c2c1)C1CC1` [Example 370], 18 nM.

In the case of `CCOc1ccc2[nH]nc(-c3ccnc(N4CC(O)(C(F)(F)F)C4)c3)c2c1` [Example 361], the IC50 was below 0.6 nM. With `Cc1ncc(-c2ccc3[nH]nc(-c4ccnc(N5CCOCC5)c4)c3c2)n1C` [Example 317], the IC50 stood at 1.4 nM.

In the case of `c1cc(-c2n[nH]c3ccc(-c4ncco4)cc23)cc(N2CCOCC2)n1` [Example 325], the IC50 is 6.9 nM. On the same count and under the same terms, the figure for `CCOc1ccc2[nH]nc(-c3ccnc(N4CCC(F)(F)CC4)c3)c2c1` [Example 288] is 22 nM; for `Cn1cc(-c2ccc3[nH]nc(-c4ccnc(N5CCC(n6cncn6)CC5)c4)c3c2)cn1` [Example 270] it is 2.2 nM. Take `CC(C)Oc1ccc2[nH]nc(-c3ccnc(N4CCC(F)(F)C4)c3)c2c1` [Example 286]: the IC50 turned out to be 5.5 nM. The same measure, in the same setting: for `CS(=O)(=O)c1ccc2[nH]nc(-c3ccnc(N4CCOCC4)c3)c2c1` [Example 369] the value was 109 nM; for `COc1ccc2c(-c3ccnc(N4CCOCC4)c3)n[nH]c2c1` [Example 105], 30 nM.

For `CC(C)Oc1ccc2[nH]nc(-c3ccnc(NS(=O)(=O)c4ccc5c(c4)OCCO5)c3)c2c1` [Example 260], the IC50 was found to be 52.3 nM. `FCOc1ccc2[nH]nc(-c3ccnc(N4CCOCC4)c3)c2c1` [Example 85]: the IC50 stood at 10.2 nM. Take `Cn1cnnc1-c1ccc2[nH]nc(-c3ccnc(N4CCOCC4)c3)c2c1` [Ex 341]: the IC50 was 1.4 nM. On to `COc1ccc(-c2ccc3[nH]nc(-c4ccnc(N5CCOCC5)c4)c3c2)cn1` [Ex 329], for which the IC50 was 14 nM. Same read-out and setting: for `Oc1cc(-c2ccc3[nH]nc(-c4ccnc(N5CCOCC5)c4)c3c2)ccn1` [Example 100] the value was 3.4 nM. For the compound `c1ccc(-c2ccc3[nH]nc(-c4ccnc(N5CCOCC5)c4)c3c2)nc1` [Example 99], the IC50 was determined as 13.7 nM.

Turning to `c1cc(-c2ccc3[nH]nc(-c4ccnc(N5CCOCC5)c4)c3c2)cc(N2CCOCC2)n1` [Example 399], the IC50 turned out to be 74 nM. As to `CC(C)Oc1ccc2[nH]nc(-c3ccnc(N4CCN(CCO)CC4)c3)c2c1` [Example 299], the IC50 was 2 nM.

Regarding `CCC(C)Oc1ccc2[nH]nc(-c3ccnc(N4CCOCC4)c3)c2c1` (centres unmarked) [Example 291], the IC50 amounted to 2.2 nM. Regarding `CC(C)Oc1ccc2[nH]nc(-c3ccnc(N4CCC(CCN)CC4)c3)c2c1` [Example 382], the IC50 is 6.8 nM. Same read-out and setting: for `CCOc1nccnc1-c1ccc2[nH]nc(-c3ccnc(N4CCOCC4)c3)c2c1` [Ex 390] the value was 1.6 nM; for `Oc1ccc2[nH]nc(-c3ccnc(N4C5CCC4COC5)c3)c2c1` [Example 398], 69 nM; for `Cn1cc(-c2ccc3[nH]nc(-c4ccnc(N5CCc6oc(C7CC7)nc6C5)c4)c3c2)cn1` [Example 272], 5.8 nM. Same read-out and setting: the figure for `CC(C)Oc1ccc2[nH]nc(-c3ccnc(NS(=O)(=O)c4ccc(C5(C#N)CC5)cc4)c3)c2c1` [Example 263] is 60.8 nM.

For the origin of these results see US9440952B2, “Compounds inhibiting leucine-rich repeat kinase enzyme activity” (Merck Sharp & Dohme Corp., priority 2013, dated 2016).
